Experiments:
Assay type in all cases: in vivo
[1] = system: Adoxophyes orana fasciata; test: Test Example 8: spray on apple tree, release of Adoxophyes orana fasciata; details: in Malus domestica, 168 h; 500 ppm active ingredient; apple tree sprayed with 20 mL/cup; 60 first-instar Adoxophyes orana fasciata; after 7 days; read-out: Death rate
Description: On the other hand, an apple tree was planted in a plastic cup, and grown until the seventh-eighth leaf was spread. The apple tree was sprayed with 20 mL/cup of each of the test spray solution. After the test solution was dried, 60 first-instar Adoxophyes orana fasciata were released, and the cup was covered with a plastic cup upside-down which the bottom was cut off and a filter paper was put thereon. After 7 days, the number of living insects was counted, and a death rate was calculated according to the following equation: Death rate (%)=(Number of dead insects/Number of tested insects)×100

Bemisia tabaci = test: Test Example 6: spray on tomato seedling with Bemisia tabaci instar larvae; details: 168 h; 500 ppm active ingredient; 20 ml/cup sprayed on tomato seedling with hatched Bemisia tabaci instar larvae; after 7 days at 25° C.
Description: On the other hand, Bemisia tabaci adult was released on a tomato seedling (the third true leaf stage) planted in a polyethylene cup, and made to lay eggs for about 72 hours. The tomato seedling was kept in a greenhouse for 8 days. When instar larvae hatched from the eggs, the above test spray solution was sprayed in the amount of 20 ml/cup. The cup was kept in a greenhouse at 25° C. After the keeping for 7 days, the number of surviving instar larvae on the tomato leaves was examined, and a control value was calculated according to the following equation: Control value (%)={1−(Cb×Tai)/(Cai×Tb))×100 wherein symbols represent as follows: Cb: the number of insects in a non-treated section before treatment, Cai: the number of insects in a non-treated section in observation, Tb: the number of insects in a treated-section before treatment, Tai: the number of insects in a treated-section in observation; wherein the non-treated section represents a section where the test spray solution prepared by diluting the formulation without the present compound in Formulation Example 5 with the same amount of water as in the treated-section was sprayed.

Aphis gossypii [2] = test: Test Example 2: root immersion of cucumber seedling, then inoculation with Aphis gossypii; details: 168 h; 500 ppm active ingredient; cucumber root part immersed in 5 ml; 30 Aphis gossypii inoculated one day after treatment; examined after further seven days
Description: A root part of a cucumber seedling (the first true leaf stage) from which soil had been washed off was immersed in 5 ml of each of the diluted solutions, and one day after treatment, on the cucumber leaf surface was inoculated with 30 Aphis gossypii (whole stage). After further seven days, the number of insect of living Aphis gossypii parasitized on the leaves of the cucumber was examined, and a control value was calculated according to the following equation: Control value (%)={1−(Cb×Tai)/(Cai×Tb))×100 wherein symbols represent as follows: Cb: the number of insects in a non-treated section before treatment, Cai: the number of insects in a non-treated section in observation, Tb: the number of insects in a treated-section before treatment, Tai: the number of insects in a treated-section in observation; wherein the non-treated section represents a section where the test diluted solution prepared by diluting the formulation without the present compound in Formulation Example 5 with the same amount of water as in the treated-section was used.

Aphis gossypii [3] = test: Test Example 1: spray on cucumber seedling inoculated with Aphis gossypii; details: topical, 144 h; 500 ppm active ingredient (Formulation Example 5 diluted with water); 20 ml sprayed on cucumber seedling with about 30 Aphis gossypii; six days after spraying
Description: On the other hand, on a cucumber seedling (the first true leaf stage) planted in a plastic cup was inoculated with about 30 Aphis gossypii, and leaving it for a day. Twenty ml of each of the above test spray solutions was sprayed on this seedling. Six days after spraying, the number of the surviving Aphis gossypii parasitized on the leaves of the cucumber was examined, and a control value was calculated according to the following equation: Control value (%)={1−(Cb×Tai)/(Cai×Tb))×100 wherein symbols represent as follows: Cb: the number of insects in a non-treated section before treatment, Cai: the number of insects in a non-treated section in observation, Tb: the number of insects in a treated-section before treatment, Tai: the number of insects in a treated-section in observation; wherein the non-treated section represents a section where the test spray solution prepared by diluting the formulation without the present compound in Formulation Example 5 with the same amount of water as in the treated-section was sprayed.

Aphis gossypii [4] = test: Test Example 3: drench at foot of cucumber seedling, then inoculation with Aphis gossypii; details: soil, 144 h, read-out: Control value
Nilaparvata lugens [5] = test: Test Example 4: spray on rice seedling, release of Nilaparvata lugens larvae; details: 144 h; 500 ppm active ingredient; rice seedling sprayed with 10 ml; third-fourth instar larvae of Nilaparvata lugens; after 6 days at 25° C.; read-out: Control value
Nilaparvata lugens [6] = test: Test Example 5: drench at foot of rice seedling, release of Nilaparvata lugens larvae; details: soil, 144 h; 500 ppm active ingredient; rice seedling drenched at its foot with 5 ml, kept 7 days; twenty third-fourth instar larvae of Nilaparvata lugens; examined after 6 days
Description: On the other hand, a rice seedling (2 weeks after sowing, the second leaf stage) planted in a plastic cup was drenched at its foot with 5 ml of each of the diluted solutions, and kept in a greenhouse of 25° C. for 7 days. Twenty third-fourth instar larvae of Nilaparvata lugens were released, and further kept in the greenhouse for 6 days, then the number of insect of living Nilaparvata lugens parasitized on the rice was examined, and a control value was calculated according to the following equation: Control value (%)={1−(Cb×Tai)/(Cai×Tb))×100 wherein symbols represent as follows: Cb: the number of insects in a non-treated section before treatment, Cai: the number of insects in a non-treated section in observation, Tb: the number of insects in a treated-section before treatment, Tai: the number of insects in a treated-section in observation; wherein the non-treated section represents a section where the test diluted solution prepared by diluting the formulation without the present compound in Formulation Example 5 with the same amount of water as in the treated-section was used.

[7] = 500 ppm active ingredient, cucumber seedling drenched at its foot with 5 ml, kept 7 days at 25° C., 30 Aphis gossypii inoculated, examined after 6 days

Measured: pest or weed control at 500 ppm

CCn1c(-c2ccccc2[S+]([O-])CC)nc2cc(C(F)(F)F)cnc21 (centres unmarked) [Present Compound 22, 2-(2-ethylsulfinylphenyl)-3-ethyl-6-trifluoromethyl-3H-imidazo[4,5-b]pyridine]
≥ 90%: [1] | Bemisia tabaci

CCSc1ccccc1-c1nc2cc(C(F)(F)C(F)(F)F)cnc2n1C [Present Compound 55, 2-(2-ethylsulfanylphenyl)-3-methyl-6-pentafluoroethyl-3H-imidazo[4,5-b]pyridine]
≥ 90%: Aphis gossypii [2] | Aphis gossypii [3] | Aphis gossypii [4]; [7] | Bemisia tabaci | Nilaparvata lugens [5] | Nilaparvata lugens [6]

CC[S+]([O-])c1c(Cl)cccc1-c1nc2cc(C(F)(F)F)cnc2n1C (centres unmarked) [Present Compound 89, 2-(3-chloro-2-ethylsulfinylphenyl)-3-methyl-6-trifluoromethyl-3H-imidazo[4,5-b]pyridine]
≥ 90%: Aphis gossypii [2] | Aphis gossypii [4]; [7] | Nilaparvata lugens [6]

CCS(=O)(=O)c1c(Cl)cccc1-c1nc2cc(C(F)(F)F)cnc2n1C [Present Compound 90, 2-(3-chloro-2-ethylsulfonylphenyl)-3-methyl-6-trifluoromethyl-3H-imidazo[4,5-b]pyridine]
≥ 90%: Aphis gossypii [4]; [7] | Nilaparvata lugens [6]

CCS(=O)(=O)c1ccccc1-c1nc2cc(C(F)(F)C(F)(F)C(F)(F)F)cnc2n1C [Present Compound 130, 2-(2-ethylsulfonylphenyl)-6-heptafluoropropyl-3-methyl-3H-imidazo[4,5-b]pyridine]
≥ 90%: Aphis gossypii [4]; Aphis gossypii | Nilaparvata lugens [6]

CCSc1ccccc1-c1nc2cc(SC(F)(F)F)cnc2n1C [Present Compound 161, 2-(2-ethylsulfanyl-phenyl)-3-methyl-6-trifluoromethylsulfanyl-3H-imidazo[4,5-b]pyridine]
≥ 90%: [1] | Aphis gossypii [3] | Bemisia tabaci | Nilaparvata lugens [5]

CCS(=O)(=O)c1cc(C(F)(F)F)ccc1-c1nc2cc(C(F)(F)F)cnc2s1 [compound 251, 2-[2-ethylsulfonyl-4-(trifluoromethyl)phenyl]-6-(trifluoromethyl)thiazolo[5,4-b]pyridine]
≥ 90%: [1] | Nilaparvata lugens [5] | Nilaparvata lugens [6]

CCS(=O)(=O)c1ccccc1-c1nc2cc(S(C)(=O)=O)cnc2n1C [compound 254, 2-(2-ethylsulfonylphenyl)-6-methylsulfonyl3-methyl-3H-imidazo[4,5-b]pyridine]
≥ 90%: Aphis gossypii [2] | Aphis gossypii [4]; [7]

CCS(=O)(=O)c1cc(C(F)(F)F)ccc1-c1nc2cc(S(=O)(=O)C(F)(F)F)cnc2n1C [compound 302, 2-(2-ethylsulfonyl-4-trifluoromethylphenyl)-3-methyl-6-trifluoromethylsulfonyl-3H-imidazo[4,5-b]pyridine]
≥ 90%: Aphis gossypii [4]; [7]

CCS(=O)(=O)c1cc(C(F)(F)F)ccc1-c1nc2cc(SC(F)(F)F)cnc2n1C [compound 306, 2-(2-ethylsulfonyl-4-trifluoromethylphenyl)-3-methyl-6-trifluoromethylsulfanyl-3H-imidazo[4,5-b]pyridine]
≥ 90%: Aphis gossypii [2] | Aphis gossypii [4]; [7] | Nilaparvata lugens [5] | Nilaparvata lugens [6]

CCS(=O)(=O)c1cc(-c2ncccn2)ccc1-c1nc2cc(C(F)(F)F)cnc2n1C [compound 333, 2-[2-ethylsulfonyl-4-(pyrimidine-2-yl)-phenyl)-3-methyl-6-trifluoromethyl-3H-imidazo[4,5-b]pyridine]
≥ 90%: Aphis gossypii [2] | Aphis gossypii [3] | Aphis gossypii [4]; [7] | Bemisia tabaci

CCS(=O)(=O)c1cc(C(F)(F)F)ccc1-c1nc2cc(C(F)(F)F)cnc2[nH]1 [compound 345, 2-(2-ethylsulfonyl-4-trifluoromethyl-phenyl)-6-trifluoromethyl-3H-imidazo[4,5-b]pyridine]
≥ 90%: [1] | Aphis gossypii [3] | Aphis gossypii [4]; [7] | Bemisia tabaci | Nilaparvata lugens [6]
